Several values for one entry are separate records, joined by “and”; a condition that tells them apart may be missing. Identical values can stand only once.

One data set has as its target Replicase polyprotein 1a (Severe acute respiratory syndrome-related coronavirus, UniProt P0C6U8). Briefly: Inhibition of SARS coronavirus 3CL proteinase.
Data set [1] in a line: Inhibition of hepatitis A virus 3C proteinase by microplate assay. Further details: species or system Hepatovirus A.
Data set [2] has as its system Hepatovirus A. Put plainly: Inhibition of hepatitis A virus 3C proteinase at 10 uM by microplate assay.
For data set [3], the system named is Hepatovirus A. Briefly: Inhibition of hepatitis A virus 3C proteinase at 1 uM by microplate assay.
Data set [4] deals with Hepatovirus A. Briefly: Inhibition of hepatitis A virus 3C proteinase at 0.25 uM by microplate assay.
The subject of data set [5] is O=C(Oc1cncc(Br)c1)c1ccco1. Briefly: Activity of SARS coronavirus 3CL proteinase assessed as compound hydrolysis by HPLC. The note with it: Severe acute respiratory syndrome-related coronavirus.
The subject of data set [6] is O=C(Oc1cncc(Br)c1)c1ccco1. Put plainly: Ratio of Kcat to Km of SARS coronavirus 3CL proteinase. The note with it: Severe acute respiratory syndrome-related coronavirus.

Broadly, the IC50 is the concentration that gives 50% inhibition. As a reminder, the inhibition is the change of the read-out against control, counted positive when it falls. On to `O=C(Oc1cncc(Cl)c1)c1cccs1`, for which the values for the 50% inhibitory concentration (IC50) (on Replicase polyprotein 1a; in data set [1]) were 500 nM and 470 nM, respectively. Further, the inhibition was 93% and > 90% in the data set with Hepatovirus A [2]; greater than 90% in the data set with Hepatovirus A [3]; 50% with Hepatovirus A [4].

A word on the Km: it is the concentration of substrate that gives half-maximal velocity. Turning to “Replicase polyprotein 1a (Severe acute respiratory syndrome-related coronavirus) (from UniProt P0C6U8)”, in data set [5], the Km worked out at 0.026 µM and the kcat was 17 ×10⁻⁵ /s. For the same molecule, the kcat/Km in data set [6] is 7 ×10³ /M/s.

Source of the values: ChEMBL document CHEMBL1150252, “Heteroaromatic ester inhibitors of hepatitis A virus 3C proteinase: Evaluation of mode of action” (Bioorg Med Chem, 2008).
